{"source": "patent US20260258081A1", "about": "“PEPTIDE HAVING HAIR GROWTH PROMOTING ACTIVITY, AND USE THEREOF” (CAREGEN CO., LTD., priority 2019, published 2026)", "format_in_all_cases": "cell-based", "key": {"[1]": {"system": "human dermal papilla cells", "assay": "Western blotting of apoptosis-related proteins Bax, Cleaved PARP-1, Cleaved Caspase-3, Bcl2", "details": "peptide 0.5 uM, 5 uM or 50 uM, 1 day, serum-free medium; western blot; FIG. 4", "method": "The inhibitory effect of the peptide consisting of the amino acid sequence of SEQ ID NO: 1 on the control of expression of apoptosis-related proteins of hair follicle cells was to be confirmed. In detail, human dermal papilla cells were seeded in a 96-well plate at a density of 4×10^5 cells/well, and cultured for 16 hours. The culture medium was replaced with a serum-free medium, and the peptide was added thereto at a concentration of 0.5 uM, 5 uM, or 50 uM, and the cells were cultured for 1 day. Here, as a positive control group, 5 uM of Minoxidil was treated. Cell lysates were prepared by harvesting the cell, and then, western blotting was performed with respect to Bax, Cleaved PARP-1, Cleaved Caspase-3, or Bcl2 by using Bax antibodies, Cleaved PARP-1 antibodies, Cleaved Caspase-3 antibodies, or Bcl2 antibodies (Santacruz biotechnology, USA), respectively."}, "[2]": {"system": "human hair follicle outer root sheath cells", "assay": "PCR expression of HA3-II, Keratin 5, Keratin 14 and Keratin 19 (activity of outer root sheath cells)", "details": "peptide 0.5 uM, 5 uM or 50 uM, 1 day, serum-free medium, FIG. 7", "method": "The promoting effect of the peptide consisting of the amino acid sequence of SEQ ID NO: 1 on the activity of hair follicle outer root sheath cells was to be confirmed. In detail, human hair follicle outer root sheath cells were seeded in a 96-well plate at a density of 4×10^5 cells/well, and cultured for 16 hours. The culture medium was replaced with a serum-free medium, and the peptide was added thereto at a concentration of 0.5 uM, 5 uM, or 50 uM, and the cells were cultured for 1 day. Here, as a positive control group, 5 uM of EGF was treated. After the cells were harvested, RNA was extracted therefrom and used for synthesis of cNDA by using a cDNA synthesis kit and PCR pre-mix. Then, PCR was performed by using the primer of GAPDH shown in Table 2 and primers of HA3-II, Keratin 5, Keratin 14, and Keratin […] shown in Table 6."}, "[3]": {"system": "human dermal papilla cells", "assay": "PCR expression of growth factors VEGF, bFGF, KGF and HGF", "details": "peptide 0.5 uM, 5 uM or 50 uM, 1 day, serum-free medium, FIG. 3", "method": "(§1) The promoting effect of the peptide consisting of the amino acid sequence of SEQ ID NO: 1 on the activity of a growth factor of hair follicle cells was to be confirmed. In detail, human dermal papilla cells were seeded in a 96-well plate at a density of 4×10^5 cells/well, and cultured for 16 hours. The culture medium was replaced with a serum-free medium, and the peptide was added thereto at a concentration of 0.5 uM, 5 uM, or 50 uM, and the cells were cultured for 1 day. Here, as a positive control group, 5 uM of Minoxidil was treated. After the cells were harvested, RNA was extracted therefrom and used for synthesis of cNDA by using a cDNA synthesis kit and PCR pre-mix."}, "[4]": {"system": "human dermal papilla cells", "assay": "PCR expression of DKK-1 under DHT stimulation", "details": "DHT 10 ug/ml as stimulator, peptide 0.5 uM, 5 uM or 50 uM, 1 day, serum-free medium, FIG. 5", "method": "The inhibitory effect of the peptide consisting of the amino acid sequence of SEQ ID NO: 1 on the expression of DKK-1, which is a hair loss-related factor, in hair follicle cells was to be confirmed. In detail, human dermal papilla cells were seeded in a 96-well plate at a density of 4×10^5 cells/well, and cultured for 16 hours. After the culture medium was replaced with a serum-free medium, dihydrotestosterone (DHT) as a stimulator was added thereto at a concentration of 10 ug/ml while peptide was added thereto at a concentration of 0.5 uM, 5 uM, or 50 uM. Then, the cells were cultured for 1 day. As a positive control, 50 uM of Finasteride which is a drug inhibiting male hormones was treated. Here, DHT is known as a hair loss hormone that increases the expression of DKK-1, which is a hair loss-inducible factor, by activating an androgen receptor. After the cells were harvested, RNA was extracted therefrom and used for synthesis of cNDA by using a cDNA synthesis kit and PCR pre-mix."}, "[5]": {"system": "human hair follicle dermal papilla cells", "assay": "β-catenin movement from cytoplasm to nucleus, western blotting of nuclear extract", "details": "peptide 0.5 uM, 5 uM or 50 uM, 1 day, serum-free medium; western blot; FIG. 1", "method": "The promoting effect of the peptide consisting of the amino acid sequence of SEQ ID NO: 1 on the proliferation of hair follicle cells was to be confirmed. In detail, human hair follicle dermal papilla cells were seeded in a 96-well plate at a density of 4×10^5 cells/well, and cultured for 16 hours. The culture medium was replaced with a serum-free medium, and the peptide was added thereto at a concentration of 0.5 uM, 5 uM, or 50 uM, and the cells were cultured for 1 day. Here, as a positive control group, 5 uM of Minoxidil which is used as a hair loss treatment was treated. The cells were harvested and nuclei thereof were isolated by using a nuclear protein extraction kit (Merck, USA). Then, western blotting was performed with respect to β-catenin which is a factor related to proliferation of the dermal papilla cells by using β-catenin antibodies (Santacruz biotechnology, USA)."}, "[6]": {"system": "human dermal papilla cells", "assay": "PCR expression of Lef-1, Cyclin D1 and c-Myc (activity of dermal papilla cells)", "details": "peptide 0.5 uM, 5 uM or 50 uM, 1 day, serum-free medium, FIG. 2", "method": "as §1, with “activity” for “activity of a growth factor”, “cDNA” for “cNDA”, “pre-mix (Intron, Korea).” for “pre-mix.”"}, "[7]": {"system": "human hair follicle germinal matrix cells", "assay": "PCR expression of MSX2 (activity of germinal matrix cells)", "details": "peptide 0.5 uM, 5 uM or 50 uM, 1 day, serum-free medium, FIG. 6", "method": "as §1, with “germinal matrix” for “a growth factor of hair follicle”, “human hair follicle” for “human”, “EGF” for “Minoxidil”"}}, "data": [{"substance": "TKVFPQD [SEQ ID NO: 1]", "values": [{"measurement": "expression of Bax", "setting": "[1]", "result": "decreased"}, {"measurement": "expression of Bcl2 (anti-apoptosis-related protein)", "setting": "[1]", "result": "increased"}, {"measurement": "expression of Cleaved Caspase-3", "setting": "[1]", "result": "decreased"}, {"measurement": "expression of Cleaved PARP-1", "setting": "[1]", "result": "decreased"}, {"measurement": "expression of HA3-II", "setting": "[2]", "result": "increase"}, {"measurement": "expression of Keratin 5", "setting": "[2]", "result": "increase"}, {"measurement": "expression of Keratin 14", "setting": "[2]", "result": "increase"}, {"measurement": "expression of Keratin 19", "setting": "[2]", "result": "increase"}, {"measurement": "expression of HGF", "setting": "[3]", "result": "increased"}, {"measurement": "expression of KGF", "setting": "[3]", "result": "increased"}, {"measurement": "expression of VEGF", "setting": "[3]", "result": "increased"}, {"measurement": "expression of bFGF", "setting": "[3]", "result": "increased"}, {"measurement": "expression pathway of DKK-1", "setting": "[4]", "result": "inhibit"}, {"measurement": "movement of β-catenin from the cytoplasm to the nucleus", "setting": "[5]", "result": "increased"}, {"measurement": "expression of Cyclin D1", "setting": "[6]", "result": "increased"}, {"measurement": "expression of Lef-1", "setting": "[6]", "result": "increased"}, {"measurement": "expression of c-Myc", "setting": "[6]", "result": "increased"}, {"measurement": "expression of MSX2", "setting": "[7]", "result": "increase"}]}]}
